What follows are substances tested on anti-CETP monoclonal antibody (detects the CETP-derived amino acid sequence FGFPEHLLVDFLQSLS) (assay: ELISA screening of peptide libraries with anti-CETP monoclonal antibody for mimotope identification). Conditions: 7 mer / 8 mer peptide libraries.
Type: binding
Excerpt: The problem of the anti-CETP vaccine approach discussed above is that the vaccine formulation comprises a self peptide and therefore must break natural tolerance against self antigens. The invention describes a CETP mimotope that can be used for vaccination: The mimotope shall induce the production of antibodies against CETP. […] Thus, the induction of an anti-CETP antibody response is greatly facilitated. The mimotope is identified with a monoclonal antibody (mAb) and (commercially available) peptide libraries (e.g. according to 16). An anti-CETP monoclonal antibody is used that neutralizes CETP activity (17). This mAb detects a sequence within the C-terminal 26 amino acids of CETP necessary for neutral lipid transfer activity (18).
One monoclonal antibody used for the mimotope identification detects the CETP-derived amino acid sequence […] (=original epitope).
The mimotope has a preferred length of 5 to 15 amino acids. Two different libraries are used in ELISA assays to define mimotope sequences.
Library 1: This 7 mer library contains peptides with the following sequences (amino acid positions 1 to 7):
Library 2: This 8 mer library contains peptides with the following sequences (amino acid positions 1 to 8):
Position 1: all natural aa except of C (19 possibilities) Position 2: all natural aa except of C (19 possibilities) Position 3: all natural aa except of C (19 possibilities) Position 4: all natural aa except of C (19 possibilities) Position 5: all natural aa except of C (19 possibilities) Position 6: all natural aa except of C (19 possibilities) Position 7: all natural aa except of C (19 possibilities) Position 8: all natural aa except of C (19 possibilities)

| Substance | mimotope detected by monoclonal antibody |
| --- | --- |
| AAQKDKVP [8 mer peptide, CETP mimotope] | detected by a monoclonal antibody |
| ALKNKLP [7 mer peptide, CETP mimotope] | detected by a monoclonal antibody |
| ALKHKVP [7 mer peptide, CETP mimotope] | detected by a monoclonal antibody |
| AVKGKLP [7 mer peptide, CETP mimotope] | detected by a monoclonal antibody |
| ALKHKIP [7 mer peptide, CETP mimotope] | detected by a monoclonal antibody |
| ALKGKIP [7 mer peptide, CETP mimotope] | detected by a monoclonal antibody |
| ALKDKVP [7 mer peptide, CETP mimotope] | detected by a monoclonal antibody |
| ALKSKIP [7 mer peptide, CETP mimotope] | detected by a monoclonal antibody |
| ALKNKIP [7 mer peptide, CETP mimotope] | detected by a monoclonal antibody |
| ALKDKLP [7 mer peptide, CETP mimotope] | detected by a monoclonal antibody |
| ALKYKLP [7 mer peptide, CETP mimotope] | detected by a monoclonal antibody |

From patent publication US20090104211A1, “Treatment of atherosclerosis” (AFFIRIS Forschungs-und Entwicklungs GmbH, priority 2004, published 2009)
